Experimental data from patent US11519014B2, “Specific substrate of an ALDH isoenzyme” (ADVANCED BIODESIGN, priority 2016, dated 2022).
Values belong to the molecule of their own block, whether it stands above or below them.

How the values were obtained:
ALDH1A1 [1] = biological target: T1, ALDH1A1 (Homo sapiens, UniProt P00352); test: Double localization of resorufin propionate and ALDH1A1 by fluorescent microscopy (NCI-H522 cells); type: cell-based; details: results not shown
T1 construct: purchased R&D Systems 5869-DH
T1 sequence (P00352 1-501): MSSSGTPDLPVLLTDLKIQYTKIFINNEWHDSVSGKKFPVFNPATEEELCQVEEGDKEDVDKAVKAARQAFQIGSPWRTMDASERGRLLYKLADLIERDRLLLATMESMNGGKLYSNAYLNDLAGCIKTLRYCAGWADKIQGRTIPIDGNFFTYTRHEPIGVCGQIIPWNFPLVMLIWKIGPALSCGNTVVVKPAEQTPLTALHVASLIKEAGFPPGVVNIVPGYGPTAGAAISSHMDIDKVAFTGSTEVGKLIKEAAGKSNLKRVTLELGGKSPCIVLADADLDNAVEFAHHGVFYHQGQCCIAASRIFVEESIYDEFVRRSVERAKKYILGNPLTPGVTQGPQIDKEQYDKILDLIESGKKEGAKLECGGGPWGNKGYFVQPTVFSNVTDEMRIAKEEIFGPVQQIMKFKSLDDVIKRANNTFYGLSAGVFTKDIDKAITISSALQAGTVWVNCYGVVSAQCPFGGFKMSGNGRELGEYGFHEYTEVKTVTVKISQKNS
Procedure: In a 24-well plate with microscope glasses previously washed with ethanol and then placed in the wells, the NCI-H522 cells were added at a cell concentration of 50.000 cells/well and then incubated in RPMI-1640 medium supplemented with L-Glutamine, Penicillin, Streptomycin and 10% Fetal Calf Serum overnight at +37° C. with a 5% CO2 atmosphere. The next day, the culture medium was changed with either DIMATE (5 μM) or the treatment vehicle and incubated for 6 hours. The cells were incubated for 30 minutes with culture medium supplemented with 10 μM of resorufin propionate, were then washed with cold PBS and then fixed with paraformaldehyde for 15 minutes at 37° C. The cells were permeabilized and saturated with PBS; 3% bovine albumin; 0.3% triton for 1 hour. The incubation was carried out with the anti-ALDH1A1 antibody (R&D System, MAB5869) for 1 hour at +37° C., then with an anti-mouse antibody coupled to fluorescein for 1 hour at room temperature in the dark, with PBS washes between the two steps. 3 washes with PBS were carried out then the microscopy glasses were mounted with an anti-decoloration support supplemented with DAPI. The cells were then observed under a microscope.

ALDH1A1 [2] = biological target: T1, ALDH1A1; test: Determination of the Km and Vmax of resorufine propionate with purified ALDH1A1; type: biochemical; details: column ALDH1; relative to ALDH1
Procedure: (§1) In 50 μl of 0.1 M phosphate buffer pH6.00; 0.2 M KCl; 2 mM NADP+; 2 mM EDTA, a range of resorufine propionate was made: 250, 200, 150, 125, 100, 90, 80 and 70 μM and 0 μM. 50 μL of recombinant enzyme solution at 2.5 mU/well ALDH1A1 (R&D Sytems, 5869-DH), ALDH2 (abcam, ab87415) and ALDH3A1 (R&D Sytems, 6705-DH) was added. The incubation was carried out for 30 minutes at +37° C. and then the fluorescence reading was made (Em: 590 nm, Ex: 530 nm). The data were then converted to resorufin released (nM·min-1.μg^−1) and Km and Vmax were calculated using the Michaelis-Menten equation using GraphPad Prism 5.0.

ALDH3A1 = biological target: T2, ALDH3A1 (Homo sapiens, UniProt P30838); test: Determination of the Km and Vmax of resorufine propionate with purified ALDH3A1; type: biochemical; details: column ALDH3
T2 construct: purchased R&D Systems 6705-DH
T2 sequence (P30838 1-453): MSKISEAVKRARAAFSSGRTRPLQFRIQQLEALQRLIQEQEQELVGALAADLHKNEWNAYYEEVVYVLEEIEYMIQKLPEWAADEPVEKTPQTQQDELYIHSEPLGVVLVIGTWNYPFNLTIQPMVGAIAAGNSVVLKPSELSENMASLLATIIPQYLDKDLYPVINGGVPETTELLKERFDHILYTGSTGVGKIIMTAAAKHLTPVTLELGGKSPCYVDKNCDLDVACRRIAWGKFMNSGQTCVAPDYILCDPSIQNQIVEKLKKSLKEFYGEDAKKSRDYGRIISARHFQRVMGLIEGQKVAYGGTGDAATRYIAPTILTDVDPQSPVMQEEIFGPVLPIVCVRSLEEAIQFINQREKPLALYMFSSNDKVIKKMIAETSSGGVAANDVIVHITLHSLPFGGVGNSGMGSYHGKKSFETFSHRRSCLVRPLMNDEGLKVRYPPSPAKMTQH
Procedure: as §1

ALDH1A1 [3] = biological target: T1, ALDH1A1; test: ALDH1 activity by resorufine propionate after treatment with interfering RNA ALDH1A1 (NCI-H522 cells); type: cell-based; details: 100 nM of siRNA, 10 μM resorufin propionate, P<0.05, FIG. 2
Procedure: In a 60 mm Petri dish, the NCI-H522 cells were seeded at a concentration of 250.000 cells/plate, corresponding to a confluence of 40-50%, in RPMI-1640 medium supplemented with L-Glutamine, Penicillin, Streptomycin and 10% Fetal Calf Serum (FCS) overnight at 37° C. The next day, the medium was replaced by the same medium without FCS. The transfection solution was then prepared by diluting 100 nM in 500 μL of culture medium without FCS, to which 500 μL of culture medium without FCS supplemented with 3 μL of lipofectamine 2000 (Invitrogen) was added. The solution was then incubated for 30 minutes at room temperature and then drops added to the cell solution. The mixture was incubated at +37° C. in a 5% CO2 incubator for 8 hours. […] The specific activity of ALDH1A1 was then assayed by fluorescence.
The cells were inoculated at a concentration of 1×10^4 cells/well in a 96-well plate in 100 μl in RPMI-1640 medium without phenol red supplemented with L-Glutamine, Penicillin, Streptomycin and 10% Fetal Calf Serum (FCS) supplemented with 10 μM resorufin propionate. The cells were then incubated for 1 hour and then the plate was read using an Appliskan fluorescent plate reader (ex=560 nm, Em=600). The data were expressed in relative fluorescence units produced by an equal number of cells.

ALDH2 = biological target: T3, ALDH2 (Homo sapiens, UniProt P05091); test: Determination of the Km and Vmax of resorufine propionate with purified ALDH2; type: biochemical; details: column ALDH2; relative to ALDH1
T3 construct: purchased abcam ab87415
T3 sequence (P05091 18-517): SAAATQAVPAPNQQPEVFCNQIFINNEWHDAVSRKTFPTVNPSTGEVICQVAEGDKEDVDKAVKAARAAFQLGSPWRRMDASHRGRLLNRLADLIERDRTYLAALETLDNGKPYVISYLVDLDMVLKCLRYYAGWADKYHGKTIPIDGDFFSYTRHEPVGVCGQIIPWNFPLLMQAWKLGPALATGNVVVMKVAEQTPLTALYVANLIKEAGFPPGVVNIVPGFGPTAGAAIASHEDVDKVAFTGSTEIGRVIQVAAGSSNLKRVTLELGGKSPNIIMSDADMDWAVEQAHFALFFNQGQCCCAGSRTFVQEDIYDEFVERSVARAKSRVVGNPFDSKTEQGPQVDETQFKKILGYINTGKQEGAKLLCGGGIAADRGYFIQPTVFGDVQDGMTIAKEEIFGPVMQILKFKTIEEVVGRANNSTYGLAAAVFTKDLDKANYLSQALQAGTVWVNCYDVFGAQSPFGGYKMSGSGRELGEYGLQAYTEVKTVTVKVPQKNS
Procedure: as §1

ALDH1 [4] = test: ALDH1 activity by resorufin propionate after treatment with inhibitors of ALDH 1 and 3 (HL-60 cells); type: cell-based; details: inhibitor 8 μM, 6 hours, substrate 10 μM, one hour, P<0.001, FIG. 3
Procedure: In a 96-well plate, the HL-60 cells were inoculated at a concentration of 50.000 cells/well in RPMI-1640 medium without phenol red supplemented with L-Glutamine, Penicillin, Streptomycin and 10% Fetal Calf Serum (FCS) supplemented with dimethyl ampalthiolester (DIMATE) a specific inhibitor ALDH 1 and 3, morpholino ampal thiolester (MATE) a specific inhibitor of ALDH3, at concentrations of 8 μM respectively. After incubation for 6 hours, the substrates of the different ALDHs respectively resorufine propionate for ALDH1 and resorufin 4-diethylaminobenzoate for ALDH3, were added to a final concentration of 10 μM and then incubated for one hour at +37° C. The plate was then read using an Appliskan fluorescent plate reader (ex=560 nm, Em=600). The data were expressed in relative fluorescence units produced by an equal number of cells.

ALDH1 [5] = test: Identification of positive ALDH1 cells by flow cytometry via resorufin propionate; type: cell-based; details: 15 μM Dimate, 5 hours, FIG. 4
Procedure: In a 60 mm Petri dish, 500.000 cells were incubated with RPMI-1640 medium supplemented with L-Glutamine, Penicillin, Streptomycin and 10% Fetal Calf Serum overnight at +37° C. with 5% atmosphere. CO2. For the negative control, the cells were taken up in medium supplemented with 15 μM of dimethyl ampal thiolester (Dimate), a specific inhibitor of ALDH1 and 3, then incubated for 5 hours at 37° C., 5% CO2. After trypsination, the cells were taken up in supplemented RPMI medium and centrifuged at 800 g for 5 minutes. The cell pellet was then taken up in fresh supplemented medium containing 10 μM of resorufin propionate, and then incubated for 1 hour in a polycarbonate tube at 37° C., 5% CO2. After incubation, the cells were then centrifuged and then washed in cold PBSx1 and finally taken up in […] of cold PBSx1. The solution was then analyzed by flow cytometry ([…] or red laser).

[6] = substrate: CCC(=O)Oc1ccc2nc3ccc(=O)cc-3oc2c1; test: Determination of the Km and Vmax of resorufine propionate with purified ALDH1A1; type: biochemical; details: other: column ALDH1; substrate range 70-250 μM; pH 6.0; 37.0 °C
Procedure: as §1

[7] = substrate: CCC(=O)Oc1ccc2nc3ccc(=O)cc-3oc2c1; test: Determination of the Km and Vmax of resorufine propionate with purified ALDH2; type: biochemical; details: other: column ALDH2; substrate range 70-250 μM; pH 6.0; 37.0 °C
Procedure: as §1

Molecule: CCCCCC(=O)Oc1ccc2c(c1)Oc1cc(OC(=O)CCCCC)ccc1C21OC(=O)c2ccccc21 [Fluorescein di-hexanoate]
- melting point: 103 to 105 °C

Molecule: CSC(=O)C#CC(C)(C)N(C)C [DIMATE, dimethyl ampalthiolester]
- conversion of resorufin propionate to resorufin, fluorescent microscopy (ALDH1A1 [1]; DIMATE 5 μM, 6 hours): inhibited
- inhibition of fluorescence (resorufin propionate signal) (ALDH1 [4]): significant inhibition of fluorescence
- positive ALDH1 cells (living cells), flow cytometry (ALDH1 [5]; 10 μM resorufin propionate): positive ALDH1 cell inhibition is observed
- viability (ALDH1 [5]; Calcein-AM): decrease in viability

B1: ALDH1A1 (Homo sapiens) (protein)
chain: T1 sequence (P00352 1-501)
notes: purchased R&D Systems 5869-DH
- Km [6]: 115 µM
- Vmax [6]: 12132 nM/min/µg

B2: ALDH2 (Homo sapiens) (protein)
chain: T3 sequence (P05091 18-517)
notes: purchased abcam ab87415
- Km [7]: 116 µM
- Vmax [7]: 6693 nM/min/µg

Next, values leading:

- colocalization of fluorescent signal with ALDH1A1 (ALDH1A1 [1]; 10 μM resorufin propionate, 30 minutes): can be colocalized with ALDH1A1
- Increase (ALDH1A1 [2]): 1
- Increase (ALDH3A1; relative to ALDH1): 0.17
- Km (ALDH3A1; substrate range 70-250 μM): 445 µM
- signal resorufine propionate after ALDH1A1 siRNA (ALDH1A1 [3]): decrease significant
- Increase (ALDH2): 0.54
Molecule: CCC(=O)Oc1ccc2nc3ccc(=O)cc-3oc2c1 [resorufine propionate, Resorufine propionate]

- melting point: 145 to 150 °C (dec.)
Molecule: CC1=C(/C=C/C(C)=C/C=C/C(C)=C/C(=O)Oc2ccc3c(c2)Oc2cc(OC(=O)/C=C(C)/C=C/C=C(C)/C=C/C4=C(C)CCCC4(C)C)ccc2C32OC(=O)c3ccccc32)C(C)(C)CCC1 (centres unmarked) [Fluorescein di-retinoate]

- melting point: 50 to 52 °C
Molecule: CCCCCCCC(=O)Oc1ccc2c(c1)Oc1cc(OC(=O)CCCCCCC)ccc1C21OC(=O)c2ccccc21 [Fluorescein octanoate, Fluorescein dioctanoate]
